Measurements taken from PMC8903829 (eLife, 2022).

How the values were obtained:
wild-type mice (CF-1) = assay: DC-Maximal electroshock seizure assay (DC-MES); type: in vivo, mouse
Description: Phenytoin was formulated in physiologic saline and was administered intraperitoneally (i.p.) using a 25-gauge needle at a dose volume of 10 mL/kg. All compounds were administered 2 hr prior to electrical seizure induction for all seizure models employed in this study.
The maximal electroshock seizure (MES) assay has been extensively used in the search for anticonvulsant substances ([Löscher et al., 1991]; [Piredda et al., 1985]; [White et al., 1995]). The MES assay is sensitive to nonselective NaV inhibitors. It is considered a model for generalized tonic-clonic (GTC) seizures and provides an assessment of seizure spread. Briefly, an electroshock of direct current (DC) was delivered by corneal electrodes (Electro Convulsive Therapy Unit 57,800 from Ugo Basile). The parameters of stimulation were different between mice and rats. In CF1 mice aged 9–12 weeks, a direct current of 50 mA (60 Hz) was delivered for 0.2 s (pulse width of 0.5ms), whereas in Sprague Dawley (SD) rats aged 5–6 weeks, a direct current of 150 mA (60 Hz) was delivered for 0.3 s (pulse width of 0.5ms). Immediately prior to the electroshock, the animals’ eyes were anesthetized with a drop of Alcaine (0.5% proparacaine hydrochloride).
An animal was considered protected in the assay in the absence of a GTC with hindlimb extension and is then scored ‘0’. An animal displaying GTC with hindlimb extension was considered not protected and is then scored ‘1’. The experimenter scoring the seizure behavior was blinded to the treatment.

[1] = Bioanalytical assessment of plasma and brain concentrations after 6 Hz assay; type: in vivo, mouse; conditions: mouse, oral, SCN8A mouse 6HZ
Description: (§1) Approximately 0.5 mL of blood was collected from each mouse at the end of the assay via cardiac puncture under deep anesthesia. The blood samples were collected in a syringe and transferred to tubes containing EDTA. Blood was stored at 4 °C until centrifuged within 30 min of collection. Plasma was harvested and placed on dry ice and stored in a freezer set to maintain a temperature of –70°C to –80°C until analysis. Brains were harvested immediately after blood collection and placed on dry ice prior to storage in a freezer set to maintain a temperature of –70°C to –80°C until analysis.
(§2) Extraction of plasma samples was carried out by protein precipitation using acetonitrile. Plasma samples (50 µL) were mixed with 50 µL of internal standard (IS) solution in water followed by addition of 10 µL of concentrated ortho-phosphoric acid and 200 µL of acetonitrile. Samples were vortexed for 30 seconds, centrifuged at 13,000 rpm for 20 min, decanted in to a 96-well plate, and further centrifuged at 4000 rpm for 20 min. The samples were analyzed by UHPLC-ESI-MS/MS as described below.
(§3) Prior to extraction, pre-weighed whole brains were homogenized in 1:1 acetonitrile/water (v/v) (4 mL per mouse brain) using an IKA T18 ULTRA-TURRAX Homogenizer at the setting of 4 for approximately 2 min. The homogenate was centrifuged at 13,000 rpm for 20 min and 50 µL of the supernatant were treated exactly as described above for plasma samples. […]
(§4) Samples were analyzed by UHPLC-ESI MS/MS using a TQ-5500 Sciex triple quadrupole mass spectrometer equipped with a Shimadzu Nexera UHPLC pump and auto-sampler system using an ACE C18 PFP, 2.50 × 50 mm, 1.7 µm particle size column and gradient elution consisting of solvent A (0.1% formic acid in water) and solvent B (0.1% formic acid in acetonitrile) starting at 20% B from 0 min to 0.4 min and then increased to 100% B from 0.4 min to 0.6 min. At 2.0 min, the mobile phase composition was switched back to […] for 1 min. The flow rate used throughout the experiment was […]. […] The UHPLC-ESI MS/MS system was controlled by Analyst 1.6.
(§5) Sample concentrations were determined using a linear calibration function, weighted 1 /X, generated by the regression of analyte to IS peak area ratios in the standard samples to their respective concentrations. Acceptance criteria for the analytical run required that the back calculated values of the standards and the QC samples fell within ±20% of their nominal values, except for the lowest standard or lower limit of quantitation (LLOQ), for which the acceptance criterion was ±25%. At least 6 out of 12 standard points had to show back-calculated values within ±20% of their nominal concentrations for the calibration to be accepted. At least three QC samples, one at each level, had to show back-calculated values within ±20% of their nominal concentrations for the whole sample batch to be valid.

Sprague Dawley rats = assay: Observation of potential adverse behavior (behavioral signs) in the rat DC-MES studies; type: in vivo; conditions: rat
Description: Animals were observed by the scientist(s) responsible for dosing for the first 30 min after dosing for and again at the time of assay (2 hr post dose) for signs of abnormal behavior.

[2] = Bioanalytical assessment of plasma and brain concentrations after mouse DC-MES assay; type: in vivo; conditions: mouse, oral, WT mouse DC-MES acute
Description: as §1, §2, §3, §4, §5

## NC(=O)N1c2ccccc2C=Cc2ccccc21 [carbamazepine, Carbamazepine, reference compound]
wild-type mice (CF-1); Study17131, 10 mg/kg
  WT mouse DC-MES acute Fraction of animals seizing: 0.7143
wild-type mice (CF-1); Study17131, 30 mg/kg
  WT mouse DC-MES acute Fraction of animals seizing: 0.4286
wild-type mice (CF-1); Study17131, 100 mg/kg
  WT mouse DC-MES acute Fraction of animals seizing: 0.1429
wild-type mice (CF-1); Study17134, 10 mg/kg
  WT mouse DC-MES acute Fraction of animals seizing: 0.8571
wild-type mice (CF-1); Study17134, 30 mg/kg
  WT mouse DC-MES acute Fraction of animals seizing: 0.4286
wild-type mice (CF-1); WT mouse DC-MES, 2 hr post dose (oral; phenytoin i.p.), read-out: brain EC50
  EC50: 44 µM
[1]; Scn8a N1768D/+, brain, 3 mg/kg, Study15064, 3 mg/kg, read-out: Mean [Brain]
  concentration at 2 h: 0.943 µM
[1]; Scn8a N1768D/+, brain, 3 mg/kg, Study16152, 3 mg/kg, read-out: Mean [Brain]
  concentration at 2 h: 2.7 µM
[1]; Scn8a N1768D/+, brain, 3 mg/kg, Study16162, 3 mg/kg, read-out: Mean [Brain]
  concentration at 2 h: 4.89 µM
[1]; Scn8a N1768D/+, brain, 10 mg/kg, Study15064, 10 mg/kg, read-out: Mean [Brain]
  concentration at 2 h: 2.24 µM
[1]; Scn8a N1768D/+, brain, 10 mg/kg, Study16152, 10 mg/kg, read-out: Mean [Brain]
  concentration at 2 h: 11.4 µM
[1]; Scn8a N1768D/+, brain, 10 mg/kg, Study16162, 10 mg/kg, read-out: Mean [Brain]
  concentration at 2 h: 15.7 µM
[1]; Scn8a N1768D/+, brain, 30 mg/kg, Study16152, 30 mg/kg, read-out: Mean [Brain]
  concentration at 2 h: 40.7 µM
[1]; Scn8a N1768D/+, brain, 100 mg/kg, Study16162, 100 mg/kg, read-out: Mean [Brain]
  concentration at 2 h: 130 µM
[1]; Scn8a N1768D/+, plasma, 10 mg/kg, Study16162, 10 mg/kg, read-out: Mean [Palsma]
  concentration at 2 h: 20.7 µM
[1]; Scn8a N1768D/+, plasma, 100 mg/kg, Study16162, 100 mg/kg, read-out: Mean [Palsma]
  concentration at 2 h: 154 µM
[1]; Scn8a^N1768D/+, plasma, 3 mg/kg, Study15064, 3 mg/kg, read-out: Mean [Palsma]
  concentration at 2 h: 1.14 µM
[1]; Scn8a^N1768D/+, plasma, 3 mg/kg, Study16152, 3 mg/kg, read-out: Mean [Palsma]
  concentration at 2 h: 4.75 µM
[1]; Scn8a^N1768D/+, plasma, 3 mg/kg, Study16162, 3 mg/kg, read-out: Mean [Palsma]
  concentration at 2 h: 7.46 µM
[1]; Scn8a^N1768D/+, plasma, 10 mg/kg, Study15064, 10 mg/kg, read-out: Mean [Palsma]
  concentration at 2 h: 5.96 µM
[1]; Scn8a^N1768D/+, plasma, 10 mg/kg, Study16152, 10 mg/kg, read-out: Mean [Palsma]
  concentration at 2 h: 15.4 µM
[1]; Scn8a^N1768D/+, plasma, 30 mg/kg, Study16152, 30 mg/kg, read-out: Mean [Palsma]
  concentration at 2 h: 48.7 µM
Sprague Dawley rats
  minimal plasma concentration provoking behavioral signs (BSC): 110 µM
[2]; brain, 10 mg/kg, Study17131, 10 mg/kg, read-out: Mean [Brain]
  concentration at 2 h: 18.3 µM
[2]; brain, 10 mg/kg, Study17134, 10 mg/kg, read-out: Mean [Brain]
  concentration at 2 h: 17.4 µM
[2]; brain, 30 mg/kg, Study17131, 30 mg/kg, read-out: Mean [Brain]
  concentration at 2 h: 43.1 µM
[2]; brain, 30 mg/kg, Study17134, 30 mg/kg, read-out: Mean [Brain]
  concentration at 2 h: 46 µM
[2]; brain, 100 mg/kg, Study17131, 100 mg/kg, read-out: Mean [Brain]
  concentration at 2 h: 115 µM
[2]; plasma, 10 mg/kg, Study17131, 10 mg/kg, read-out: Mean [Palsma]
  concentration at 2 h: 13.6 µM
[2]; plasma, 10 mg/kg, Study17134, 10 mg/kg, read-out: Mean [Palsma]
  concentration at 2 h: 16.6 µM
[2]; plasma, 30 mg/kg, Study17131, 30 mg/kg, read-out: Mean [Palsma]
  concentration at 2 h: 34.5 µM
[2]; plasma, 30 mg/kg, Study17134, 30 mg/kg, read-out: Mean [Palsma]
  concentration at 2 h: 52.5 µM
[2]; plasma, 100 mg/kg, Study17131, 100 mg/kg, read-out: Mean [Palsma]
  concentration at 2 h: 91.3 µM
